Consider one compound from PMC10174618, “Monoterpenoid aryl hydrocarbon receptor allosteric antagonists protect against ultraviolet skin damage in female mice” (Nature Communications, 2023).

Assay in all cases: biochemical
Holding throughout (parameters): KINOMEscan scanMAX active site-directed competition binding assay, percent of control, 468 kinases
Common to all, as to conditions: competition binding, percent of control

Test [1] concerns the target T1, p38-beta (Homo sapiens, UniProt Q15759).
T1 construct: gene MAPK11
The essentials: (§1)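 KINOMEscan active site-directed competition binding assay against 468 human kinases with 100 μM S-carvone. Binding expressed as % of control, with 35% of control as the inhibition threshold.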

Test [2] has as its target NEK7 (Homo sapiens, UniProt Q8TDX7). An outline of the steps: as §1
For test [3], the target named is T2, MEK3 (Homo sapiens, UniProt P46734).
T2 construct: gene MAP2K3
An outline of the steps: as §1

The target of test [4] is CLK1 (Homo sapiens, UniProt P49759). The essentials: as §1
The target in test [5] is T3, QSK (Homo sapiens, UniProt Q9Y2K2).
T3 construct: gene SIK3
An outline of the steps: as §1

The target of test [6] is T4, RPS6KA4(Kin.Dom.2-C-terminal) (Homo sapiens, UniProt O75676).
T4 construct: Kin.Dom.2-C-terminal
The essentials:
as §1

Test [7] addresses EGFR(G719C) (Homo sapiens, UniProt P00533, G719C). The essentials: as §1
The target in test [8] is NEK5 (Homo sapiens, UniProt Q6P3R8). The essentials:
as §1

Test [9] addresses ANKK1 (Homo sapiens, UniProt Q8NFD2). An outline of the steps:
as §1

Test [10] concerns the target T5, CDC2L5 (Homo sapiens, UniProt Q14004).
T5 construct: gene CDK13
An outline of the steps:
as §1

Test [11] has as its target EPHA8 (Homo sapiens, UniProt P29322). The essentials:
as §1

Test [12] concerns the target CDKL3 (Homo sapiens, UniProt Q8IVW4). An outline of the steps: as §1
Test [13] addresses MET (Homo sapiens, UniProt P08581). The essentials: as §1
Test [14] addresses T6, p38-gamma (Homo sapiens, UniProt P53778).
T6 construct: gene MAPK12
An outline of the steps: as §1

Test [15] deals with TNK2 (Homo sapiens, UniProt Q07912). An outline of the steps:
as §1

Test [16] concerns the target CLK3 (Homo sapiens, UniProt P49761). The essentials: as §1
Test [17] concerns the target MET(Y1235D) (Homo sapiens, UniProt P08581, Y1235D). An outline of the steps:
as §1

The target in test [18] is PKN2 (Homo sapiens, UniProt Q16513). The essentials: as §1
Test [19] addresses RAF1 (Homo sapiens, UniProt P04049). The essentials: as §1
Test [20] has as its target HIPK3 (Homo sapiens, UniProt Q9H422). The essentials:
as §1

Test [21] has as its target T7, MST3 (Homo sapiens, UniProt Q9Y6E0).
T7 construct: gene STK24
The essentials: as §1

For test [22], the target named is CAMK2B (Homo sapiens, UniProt Q13554). The essentials:
as §1

Chain of MET(Y1235D) (P08581 whole entry Y1235D): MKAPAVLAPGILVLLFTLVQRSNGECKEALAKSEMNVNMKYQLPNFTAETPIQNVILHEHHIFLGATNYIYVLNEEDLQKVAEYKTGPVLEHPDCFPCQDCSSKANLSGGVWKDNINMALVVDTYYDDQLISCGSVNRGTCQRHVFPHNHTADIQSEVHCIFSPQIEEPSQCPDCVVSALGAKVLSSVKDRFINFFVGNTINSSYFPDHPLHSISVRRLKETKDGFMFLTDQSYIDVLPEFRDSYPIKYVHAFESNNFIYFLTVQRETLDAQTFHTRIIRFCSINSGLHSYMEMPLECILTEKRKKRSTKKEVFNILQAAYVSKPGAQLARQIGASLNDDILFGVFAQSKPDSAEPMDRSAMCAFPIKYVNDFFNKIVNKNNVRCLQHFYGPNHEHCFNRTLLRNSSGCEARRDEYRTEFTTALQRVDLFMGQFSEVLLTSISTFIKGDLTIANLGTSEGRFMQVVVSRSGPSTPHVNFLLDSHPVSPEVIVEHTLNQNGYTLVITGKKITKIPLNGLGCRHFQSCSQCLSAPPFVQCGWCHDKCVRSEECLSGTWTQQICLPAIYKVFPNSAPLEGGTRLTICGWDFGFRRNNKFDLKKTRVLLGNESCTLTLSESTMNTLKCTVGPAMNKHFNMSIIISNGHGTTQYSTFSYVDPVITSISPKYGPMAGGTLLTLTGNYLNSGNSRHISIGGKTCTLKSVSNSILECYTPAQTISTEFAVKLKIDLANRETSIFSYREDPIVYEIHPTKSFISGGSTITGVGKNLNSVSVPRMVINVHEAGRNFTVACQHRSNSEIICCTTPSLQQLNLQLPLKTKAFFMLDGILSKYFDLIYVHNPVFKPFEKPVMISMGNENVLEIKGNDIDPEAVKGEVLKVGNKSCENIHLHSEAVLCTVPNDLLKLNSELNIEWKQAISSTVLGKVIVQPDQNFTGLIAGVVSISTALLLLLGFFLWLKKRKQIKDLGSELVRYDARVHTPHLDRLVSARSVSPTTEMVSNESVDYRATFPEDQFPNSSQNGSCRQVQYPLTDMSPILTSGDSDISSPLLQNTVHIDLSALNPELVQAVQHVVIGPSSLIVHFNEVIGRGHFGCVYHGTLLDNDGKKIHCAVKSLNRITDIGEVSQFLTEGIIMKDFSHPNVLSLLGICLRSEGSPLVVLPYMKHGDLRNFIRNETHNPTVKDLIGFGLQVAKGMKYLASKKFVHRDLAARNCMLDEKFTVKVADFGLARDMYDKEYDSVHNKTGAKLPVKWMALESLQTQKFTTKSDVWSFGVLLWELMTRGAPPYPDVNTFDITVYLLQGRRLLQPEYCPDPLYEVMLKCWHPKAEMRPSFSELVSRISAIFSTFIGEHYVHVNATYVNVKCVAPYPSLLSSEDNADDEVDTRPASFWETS
Chain of RAF1 (P04049 whole entry): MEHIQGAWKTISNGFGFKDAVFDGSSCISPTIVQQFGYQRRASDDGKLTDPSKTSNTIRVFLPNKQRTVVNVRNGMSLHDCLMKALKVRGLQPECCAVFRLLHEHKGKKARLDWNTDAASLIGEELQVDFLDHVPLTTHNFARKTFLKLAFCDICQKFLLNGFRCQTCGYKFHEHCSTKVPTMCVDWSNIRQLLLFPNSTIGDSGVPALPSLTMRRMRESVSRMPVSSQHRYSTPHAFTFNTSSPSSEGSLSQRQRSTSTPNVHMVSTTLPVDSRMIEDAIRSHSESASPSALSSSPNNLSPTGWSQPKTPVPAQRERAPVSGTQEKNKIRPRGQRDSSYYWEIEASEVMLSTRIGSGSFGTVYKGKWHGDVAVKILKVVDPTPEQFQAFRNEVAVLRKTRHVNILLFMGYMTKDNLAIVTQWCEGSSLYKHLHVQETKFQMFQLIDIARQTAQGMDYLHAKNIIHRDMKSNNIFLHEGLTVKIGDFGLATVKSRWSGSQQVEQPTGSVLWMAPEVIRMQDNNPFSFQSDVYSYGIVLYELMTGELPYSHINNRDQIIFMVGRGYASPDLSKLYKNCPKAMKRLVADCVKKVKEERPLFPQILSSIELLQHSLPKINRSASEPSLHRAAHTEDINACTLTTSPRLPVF
Chain of CLK3 (P49761 whole entry): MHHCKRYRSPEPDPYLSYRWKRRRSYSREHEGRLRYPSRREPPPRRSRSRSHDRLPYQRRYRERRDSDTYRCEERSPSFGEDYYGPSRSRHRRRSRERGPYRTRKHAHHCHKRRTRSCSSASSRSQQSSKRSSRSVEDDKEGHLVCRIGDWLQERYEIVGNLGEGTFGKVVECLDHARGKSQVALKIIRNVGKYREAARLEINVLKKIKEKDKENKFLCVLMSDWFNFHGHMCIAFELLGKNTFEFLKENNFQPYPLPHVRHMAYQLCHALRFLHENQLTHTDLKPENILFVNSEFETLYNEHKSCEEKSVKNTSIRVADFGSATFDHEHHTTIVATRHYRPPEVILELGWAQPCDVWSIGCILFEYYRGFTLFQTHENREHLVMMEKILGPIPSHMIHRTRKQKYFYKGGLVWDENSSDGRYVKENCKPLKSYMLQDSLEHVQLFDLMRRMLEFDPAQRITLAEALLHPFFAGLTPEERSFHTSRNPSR
Chain of NEK5 (Q6P3R8 whole entry): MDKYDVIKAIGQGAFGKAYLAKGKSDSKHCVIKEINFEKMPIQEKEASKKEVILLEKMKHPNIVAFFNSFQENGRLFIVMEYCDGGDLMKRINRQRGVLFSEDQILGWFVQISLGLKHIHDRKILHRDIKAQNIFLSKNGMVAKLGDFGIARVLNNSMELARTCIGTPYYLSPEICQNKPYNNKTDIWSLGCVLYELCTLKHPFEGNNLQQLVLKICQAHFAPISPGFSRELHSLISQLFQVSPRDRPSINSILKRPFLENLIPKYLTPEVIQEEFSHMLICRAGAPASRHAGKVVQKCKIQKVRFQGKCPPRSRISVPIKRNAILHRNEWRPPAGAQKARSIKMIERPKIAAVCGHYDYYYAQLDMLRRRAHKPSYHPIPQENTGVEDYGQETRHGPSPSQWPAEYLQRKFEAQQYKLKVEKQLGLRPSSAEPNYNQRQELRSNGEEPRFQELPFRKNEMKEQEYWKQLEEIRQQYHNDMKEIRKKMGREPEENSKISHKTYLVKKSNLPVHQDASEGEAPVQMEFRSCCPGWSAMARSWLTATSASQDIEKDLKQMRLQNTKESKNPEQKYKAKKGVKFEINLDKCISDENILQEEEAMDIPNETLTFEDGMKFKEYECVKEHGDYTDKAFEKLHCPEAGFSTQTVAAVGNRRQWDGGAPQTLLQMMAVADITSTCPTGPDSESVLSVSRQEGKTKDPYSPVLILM
Chain of MET (P08581 whole entry): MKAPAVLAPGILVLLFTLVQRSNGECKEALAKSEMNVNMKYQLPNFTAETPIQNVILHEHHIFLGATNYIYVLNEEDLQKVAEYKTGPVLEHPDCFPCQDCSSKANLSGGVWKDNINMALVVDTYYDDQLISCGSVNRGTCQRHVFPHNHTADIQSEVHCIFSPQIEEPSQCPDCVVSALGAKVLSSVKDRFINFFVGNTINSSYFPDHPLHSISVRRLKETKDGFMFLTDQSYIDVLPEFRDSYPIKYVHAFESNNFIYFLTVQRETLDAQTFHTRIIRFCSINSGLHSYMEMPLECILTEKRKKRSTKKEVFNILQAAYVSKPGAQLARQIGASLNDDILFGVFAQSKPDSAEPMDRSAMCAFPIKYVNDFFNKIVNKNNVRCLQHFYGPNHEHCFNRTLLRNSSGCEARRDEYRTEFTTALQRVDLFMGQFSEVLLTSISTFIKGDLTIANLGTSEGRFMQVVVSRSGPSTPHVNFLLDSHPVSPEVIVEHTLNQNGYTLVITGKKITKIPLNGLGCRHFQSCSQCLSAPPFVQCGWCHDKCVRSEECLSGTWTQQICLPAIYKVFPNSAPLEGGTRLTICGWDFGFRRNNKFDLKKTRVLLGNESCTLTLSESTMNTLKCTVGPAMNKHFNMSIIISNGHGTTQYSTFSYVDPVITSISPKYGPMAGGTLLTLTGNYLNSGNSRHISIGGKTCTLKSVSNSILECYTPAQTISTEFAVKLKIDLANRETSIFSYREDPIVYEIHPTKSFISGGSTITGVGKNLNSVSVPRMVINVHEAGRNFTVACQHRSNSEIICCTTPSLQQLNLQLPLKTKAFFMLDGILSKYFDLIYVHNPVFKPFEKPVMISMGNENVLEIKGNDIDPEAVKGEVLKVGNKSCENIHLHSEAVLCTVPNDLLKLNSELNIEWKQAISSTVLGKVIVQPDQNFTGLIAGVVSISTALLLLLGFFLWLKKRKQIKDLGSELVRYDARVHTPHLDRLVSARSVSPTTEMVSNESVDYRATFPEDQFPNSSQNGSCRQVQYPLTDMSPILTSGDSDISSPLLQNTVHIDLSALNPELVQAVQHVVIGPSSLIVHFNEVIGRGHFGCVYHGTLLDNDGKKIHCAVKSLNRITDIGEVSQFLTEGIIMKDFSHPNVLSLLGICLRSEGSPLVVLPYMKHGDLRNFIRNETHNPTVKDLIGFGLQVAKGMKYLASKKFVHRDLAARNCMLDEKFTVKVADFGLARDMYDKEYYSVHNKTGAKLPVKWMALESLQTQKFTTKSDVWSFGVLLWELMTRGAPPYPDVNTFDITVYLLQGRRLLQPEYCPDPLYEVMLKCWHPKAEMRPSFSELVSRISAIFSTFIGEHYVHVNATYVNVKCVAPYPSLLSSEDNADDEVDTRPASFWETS
T1 sequence (Q15759 whole entry): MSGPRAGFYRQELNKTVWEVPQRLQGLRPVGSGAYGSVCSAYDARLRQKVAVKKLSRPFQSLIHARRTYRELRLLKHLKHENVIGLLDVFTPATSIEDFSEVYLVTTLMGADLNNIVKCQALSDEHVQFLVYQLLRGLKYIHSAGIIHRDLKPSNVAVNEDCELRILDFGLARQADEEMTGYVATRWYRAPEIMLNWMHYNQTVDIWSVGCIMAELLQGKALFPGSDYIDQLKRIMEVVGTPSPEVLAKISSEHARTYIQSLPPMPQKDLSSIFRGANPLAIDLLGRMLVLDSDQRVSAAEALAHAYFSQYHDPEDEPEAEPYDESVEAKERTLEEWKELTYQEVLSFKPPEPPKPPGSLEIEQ

Take `C=C(C)[C@H]1CC=C(C)C(=O)C1` [S-carvone]: the remaining binding at 100 µM in [1] turned out to be 98%; in test [2], 74%; in [3], 84%; in test [4] it was 94%; in test [5], 89%; in test [6], 75%. Also, the remaining binding at 100 µM in test [7] was found to be 74%; in test [8], 93%; in test [9], 91%; in test [10], 74%; in test [11] it was 91%; in test [12], 89%. The remaining binding at 100 µM in test [13] was 90%; in [14] it was 72%; in [15], 93%; in [16], 99%; in [17] it was 87%; in test [18], 83%. Besides, the remaining binding at 100 µM in test [19] is 99%; in test [20], 51%; in test [21] it was 64%; in [22], 86%.
